How the values were obtained:
[1] = target: Recombinant human Cbl-b (aa 36-427) (Homo sapiens (Human), UniProt Q13191); experiment: Cbl-b Biochemical Assay (TR-FRET); conditions: read-out: TR-FRET hCbl-b IC50
Outline: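 Two-step TR-FRET: 6 nM biotinylated Cbl-b preincubated 30-60 min with compound, then 60 min at RT with 1-2.5 nM Src-Zap70 and 0.5 mM ATP in HEPES pH 7.0 buffer, 1% DMSO. Stopped with 5 mM EDTA plus 100 nM UBE2D2-Ub-FL-BODIPY and 1 nM streptavidin-Tb, 60 min; 520 nm signal; IC50 from 4-parameter fit.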

[2] = target: Recombinant human c-Cbl (aa 47-435) (Homo sapiens (Human), UniProt P22681); experiment: c-Cbl Biochemical Assay (TR-FRET)
Outline: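 Biotinylated c-Cbl (6 nM) preincubated 30 min RT with compound, then reacted 60-90 min with Src-Zap70 (2.5-10 nM) and 0.5 mM ATP, pH 7.0 HEPES buffer. Stopped with EDTA; 100 nM Bodipy-ubiquitinated UBE2D2 binding read by TR-FRET after 60 min; IC50 from 4-parameter fit.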

Chain of Recombinant human Cbl-b (aa 36-427) (Q13191 36-427): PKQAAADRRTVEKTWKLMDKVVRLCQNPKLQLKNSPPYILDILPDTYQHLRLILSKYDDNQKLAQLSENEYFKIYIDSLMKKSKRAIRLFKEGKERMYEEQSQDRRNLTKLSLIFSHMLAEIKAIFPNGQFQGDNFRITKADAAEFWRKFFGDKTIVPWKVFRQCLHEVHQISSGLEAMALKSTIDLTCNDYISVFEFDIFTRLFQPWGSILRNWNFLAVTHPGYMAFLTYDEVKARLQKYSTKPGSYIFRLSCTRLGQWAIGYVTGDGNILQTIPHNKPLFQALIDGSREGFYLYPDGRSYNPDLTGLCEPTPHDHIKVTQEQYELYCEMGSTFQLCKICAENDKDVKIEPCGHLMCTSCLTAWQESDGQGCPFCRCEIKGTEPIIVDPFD
Chain of Recombinant human c-Cbl (aa 47-435) (P22681 47-435): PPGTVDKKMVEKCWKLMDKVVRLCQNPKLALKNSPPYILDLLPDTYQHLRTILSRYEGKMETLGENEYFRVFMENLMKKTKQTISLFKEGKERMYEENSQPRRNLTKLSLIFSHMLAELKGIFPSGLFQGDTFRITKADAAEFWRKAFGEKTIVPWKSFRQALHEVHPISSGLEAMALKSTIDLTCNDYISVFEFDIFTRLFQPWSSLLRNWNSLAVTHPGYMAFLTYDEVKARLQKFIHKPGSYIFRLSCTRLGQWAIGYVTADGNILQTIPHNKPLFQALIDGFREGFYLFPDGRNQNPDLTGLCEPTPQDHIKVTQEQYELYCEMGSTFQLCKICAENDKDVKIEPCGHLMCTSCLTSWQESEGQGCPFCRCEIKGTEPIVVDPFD

| SMILES | IC50 [1] | IC50 [2] |
| --- | --- | --- |
| Cn1cnnc1-c1cc(C#N)ccc1-c1cc(C2CC2)nc(N2Cc3c(F)cc(CN[C@@H]4COC[C@@H]4O)cc3C2=O)c1 [ALI-2, 4-{2-Cyclopropyl-6-[4-fluoro-6-({[(3R,4R)-4-hydroxyoxolan-3-yl]amino}methyl)-1-oxo-3H-isoindol-2-yl]pyridin-4-yl}-3-(4-methyl-1,2,4-triazol-3-yl)benzonitrile] | ≤ 200 nM | ≤ 200 nM |
| Cn1cnnc1-c1cc(C#N)ccc1-c1cc(C2CC2)nc(N2Cc3ccc(CN4CC(F)C4)cc3C2=O)c1 [ALJ-1, 4-(2-Cyclopropyl-6-{6-[(3-fluoroazetidin-1-yl)methyl]-1-oxo-3H-isoindol-2-yl}pyridin-4-yl)-3-(4-methyl-1,2,4-triazol-3-yl)benzonitrile] | ≤ 200 nM | ≤ 200 nM |
| Cn1cnnc1-c1cc(C#N)ccc1-c1cc(C2CC2)nc(N2Cc3ccc(C(C)(C)N)cc3C2=O)c1 [ALK-9, 4-{2-[6-(2-Aminopropan-2-yl)-1-oxo-3H-isoindol-2-yl]-6-cyclopropylpyridin-4-yl}-3-(4-methyl-1,2,4-triazol-3-yl)benzonitrile] | ≤ 200 nM | ≤ 200 nM |
| Cn1cnnc1-c1cc(C#N)ccc1-c1cc(C2CC2)nc(N2Cc3ccc(C(C)(C)NCC4CC4)cc3C2=O)c1 [ALL-2, 4-[2-Cyclopropyl-6-(6-{2-[(cyclopropylmethyl)amino]propan-2-yl}-1-oxo-3H-isoindol-2-yl)pyridin-4-yl]-3-(4-methyl-1,2,4-triazol-3-yl)benzonitrile] | ≤ 200 nM | ≤ 200 nM |
| Cn1cnnc1-c1cc(C#N)ccc1-c1cc(N2Cc3c(F)cc(CO)cc3C2=O)nc(C(F)(F)F)c1 [ALM-3, 4-{2-[4-Fluoro-6-(hydroxymethyl)-1-oxo-3H-isoindol-2-yl]-6-(trifluoromethyl)pyridin-4-yl}-3-(4-methyl-1,2,4-triazol-3-yl)benzonitrile] | ≤ 200 nM | 200 to 1000 nM |
| COCCNCc1cc(F)c2c(c1)C(=O)N(c1cc(-c3ccc(C#N)cc3-c3nncn3C)cc(C(F)(F)F)n1)C2 [ALN-2, 4-[2-(4-Fluoro-6-{[(2-methoxyethyl)amino]methyl}-1-oxo-3H-isoindol-2-yl)-6-(trifluoromethyl)pyridin-4-yl]-3-(4-methyl-1,2,4-triazol-3-yl)benzonitrile] | ≤ 200 nM | ≤ 200 nM |
| Cn1cnnc1-c1cc(C#N)ccc1-c1cc(C2CC2)nc(N2Cc3c(F)cc(CNCC4(C)CCC4)cc3C2=O)c1 [ALO-2, 4-{2-Cyclopropyl-6-[4-fluoro-6-({[(1-methylcyclobutyl)methyl]amino}methyl)-1-oxo-3H-isoindol-2-yl]pyridin-4-yl}-3-(4-methyl-1,2,4-triazol-3-yl)benzonitrile] | ≤ 200 nM | ≤ 200 nM |
| Cn1cnnc1-c1cc(C#N)ccc1-c1cc(C2CC2)nc(N2Cc3ccc(CNCC4(C)CCC4)cc3C2=O)c1 [ALP-1, 4-{2-Cyclopropyl-6-[6-({[(1-methylcyclobutyl)methyl]amino}methyl)-1-oxo-3H-isoindol-2-yl]pyridin-4-yl}-3-(4-methyl-1,2,4-triazol-3-yl)benzonitrile] | ≤ 200 nM | ≤ 200 nM |
| Cn1cnnc1-c1cc(C#N)ccc1-c1cc(C2CC2)nc(N2Cc3ccc(CNC4CC4)cc3C2=O)c1 [ALQ-2, 4-(2-Cyclopropyl-6-{6-[(cyclopropylamino)methyl]-1-oxo-3H-isoindol-2-yl}pyridin-4-yl)-3-(4-methyl-1,2,4-triazol-3-yl)benzonitrile] | ≤ 200 nM | ≤ 200 nM |
| Cn1cnnc1-c1cc(C#N)ccc1-c1cc(C2CC2)nc(N2Cc3c(F)cc(CNC4CC4)cc3C2=O)c1 [ALR-1, 4-(2-Cyclopropyl-6-{6-[(cyclopropylamino)methyl]-4-fluoro-1-oxo-3H-isoindol-2-yl}pyridin-4-yl)-3-(4-methyl-1,2,4-triazol-3-yl)benzonitrile] | ≤ 200 nM | ≤ 200 nM |
| C[C@H]1CCCN(Cc2ccc3c(c2)C(=O)N(c2cc(-c4ccc(C#N)cc4-c4nncn4C)cc(C4CC4)n2)C3)C1 [ALS-1, 4-[2-Cyclopropyl-6-(6-{[(3S)-3-methylpiperidin-1-yl]methyl}-1-oxo-3H-isoindol-2-yl)pyridin-4-yl]-3-(4-methyl-1,2,4-triazol-3-yl)benzonitrile] | ≤ 200 nM | ≤ 200 nM |
| COCC1(NCc2ccc3c(c2)C(=O)N(c2cc(-c4ccc(C#N)cc4-c4nncn4C)cc(C4CC4)n2)C3)CC1 [ALT-2, 4-{2-Cyclopropyl-6-[6-({[1-(methoxymethyl)cyclopropyl]amino}methyl)-1-oxo-3H-isoindol-2-yl]pyridin-4-yl}-3-(4-methyl-1,2,4-triazol-3-yl)benzonitrile] | ≤ 200 nM | ≤ 200 nM |
| Cn1cnnc1-c1cc(C#N)ccc1-c1cc(C2CC2)nc(N2Cc3ccc(CN4CCC(F)(F)CC4)cc3C2=O)c1 [ALU-2, 4-(2-Cyclopropyl-6-{6-[(4,4-difluoropiperidin-1-yl)methyl]-1-oxo-3H-isoindol-2-yl}pyridin-4-yl)-3-(4-methyl-1,2,4-triazol-3-yl)benzonitrile] | ≤ 200 nM | ≤ 200 nM |
| COC(F)(F)CNCc1cc(F)c2c(c1)C(=O)N(c1cc(-c3ccc(C#N)cc3-c3nncn3C)cc(C3CC3)n1)C2 [ALV-4, 4-[2-Cyclopropyl-6-(6-{[(2,2-difluoro-2-methoxyethyl)amino]methyl}-4-fluoro-1-oxo-3H-isoindol-2-yl)pyridin-4-yl]-3-(4-methyl-1,2,4-triazol-3-yl)benzonitrile] | ≤ 200 nM | ≤ 200 nM |
| Cn1cnnc1-c1cc(C#N)ccc1-c1cc(C2CC2)nc(N2Cc3c(F)cc(CNCC(F)(F)F)cc3C2=O)c1 [ALW-1, -[2-Cyclopropyl-6-(4-fluoro-1-oxo-6-{[(2,2,2-trifluoroethyl)amino]methyl}-3H-isoindol-2-yl)pyridin-4-yl]-3-(4-methyl-1,2,4-triazol-3-yl)benzonitrile] | ≤ 200 nM | ≤ 200 nM |
| Cn1cnnc1-c1cc(C#N)ccc1-c1cc(C2CC2)nc(N2Cc3c(cc(CO)c(F)c3F)C2=O)c1 [ALX-9, 4-{2-Cyclopropyl-6-[4,5-difluoro-6-(hydroxymethyl)-1-oxo-3H-isoindol-2-yl]pyridin-4-yl}-3-(4-methyl-1,2,4-triazol-3-yl)benzonitrile] | ≤ 200 nM | ≤ 200 nM |
| Cn1cnnc1-c1cc(C#N)ccc1-c1cc(C2CC2)nc(N2Cc3c(cc(CNCCOC(F)(F)F)c(F)c3F)C2=O)c1 [ALY-2, 4-{2-Cyclopropyl-6-[4,5-difluoro-1-oxo-6-({[2-(trifluoromethoxy)ethyl]amino}methyl)-3H-isoindol-2-yl]pyridin-4-yl}-3-(4-methyl-1,2,4-triazol-3-yl)benzonitrile] | ≤ 200 nM | ≤ 200 nM |
| CNCCNCc1ccc2c(c1)C(=O)N(c1cc(-c3ccc(C#N)cc3-c3nncn3C)cc(C3CC3)n1)C2 [ALZ-3, 4-{2-Cyclopropyl-6-[6-({[2-(methylamino)ethyl]amino}methyl)-1-oxo-3H-isoindol-2-yl]pyridin-4-yl}-3-(4-methyl-1,2,4-triazol-3-yl)benzonitrile] | ≤ 200 nM | ≤ 200 nM |
| Cn1cnnc1-c1cc(C#N)ccc1-c1cc(C2CC2)nc(N2Cc3ccc(CNCC4(CO)CCC4)cc3C2=O)c1 [AMA-2, 4-(2-Cyclopropyl-6-{6-[({[1-(hydroxymethyl)cyclobutyl]methyl}amino)methyl]-1-oxo-3H-isoindol-2-yl}pyridin-4-yl)-3-(4-methyl-1,2,4-triazol-3-yl)benzonitrile] | ≤ 200 nM | ≤ 200 nM |
| CC(=O)NCCNCc1ccc2c(c1)C(=O)N(c1cc(-c3ccc(C#N)cc3-c3nncn3C)cc(C3CC3)n1)C2 [AMB-1, N-(2-{[(2-{4-[4-Cyano-2-(4-methyl-1,2,4-triazol-3-yl)phenyl]-6-cyclopropylpyridin-2-yl}-3-oxo-1H-isoindol-5-yl)methyl]amino}ethyl)acetamide] | ≤ 200 nM | ≤ 200 nM |
| Cn1cnnc1-c1cc(C#N)ccc1-c1cc(C2CC2)nc(N2Cc3c(F)cc(CNCC4CC4)cc3C2=O)c1 [AMC-2, 4-[2-Cyclopropyl-6-(6-{[(cyclopropylmethyl)amino]methyl}-4-fluoro-1-oxo-3H-isoindol-2-yl)pyridin-4-yl]-3-(4-methyl-1,2,4-triazol-3-yl)benzonitrile] | ≤ 200 nM | ≤ 200 nM |
| CO[C@@H](C)[C@H](C)NCc1cc(F)c2c(c1)C(=O)N(c1cc(-c3ccc(C#N)cc3-c3nncn3C)cc(C3CC3)n1)C2 [AMD-2, 4-{2-Cyclopropyl-6-[4-fluoro-6-({[(2S,3S)-3-methoxybutan-2-yl]amino}methyl)-1-oxo-3H-isoindol-2-yl]pyridin-4-yl}-3-(4-methyl-1,2,4-triazol-3-yl)benzonitrile] | ≤ 200 nM | ≤ 200 nM |
| Cn1cnnc1-c1cc(C#N)ccc1-c1cc(C2CC2)nc(N2Cc3c(F)cc(CNCCC(F)F)cc3C2=O)c1 [AME-2, 4-[2-Cyclopropyl-6-(6-{[(3,3-difluoropropyl)amino]methyl}-4-fluoro-1-oxo-3H-isoindol-2-yl)pyridin-4-yl]-3-(4-methyl-1,2,4-triazol-3-yl)benzonitrile] | ≤ 200 nM | ≤ 200 nM |
| CN(Cc1ccc2c(c1)C(=O)N(c1cc(-c3ccc(C#N)cc3-c3nncn3C)cc(C3CC3)n1)C2)CC1CCC1 [AMF-1, 4-[2-(6-{[(cyclobutylmethyl)(methyl)amino]methyl}-1-oxo-3H-isoindol-2-yl)-6-cyclopropylpyridin-4-yl]-3-(4-methyl-1,2,4-triazol-3-yl)benzonitrile] | ≤ 200 nM | ≤ 200 nM |

— patent publication US12325697B2 (Nimbus Clio, Inc., priority 2021, dated 2025)
